Data on three molecules can be found in US9181307B2, “Influenza A 2009 pandemic H1N1 polypeptide fragments comprising endonuclease activity and their use” (priority 2010, dated 2015).

Structures are written as SMILES.

The test system of the experiment is Influenza A 2009 pandemic H1N1 PA subunit polypeptide fragment or variant thereof. In words: Inhibition of endonucleolytic activity of PA subunit polypeptide fragment. It is filed as biochemical, Influenza A 2009 pandemic H1N1 virus.
Regarding `O=C(O[C@@H]1Cc2c(O)cc(O)cc2O[C@@H]1c1cc(O)c(O)c(O)c1)c1cc(O)c(O)c(O)c1` [EGCG, [(2R,3R)-5,7-dihydroxy-2-(3,4,5-trihydroxyphenyl)chroman-3-yl]3,4,5-trihydroxybenzoate], the “ability to modulate, i.e. to inhibit, the endonucleolytic activity” value (“ability to modulate, i.e. to inhibit” for short) was “inhibit”.
As for `O=C(O)/C(O)=C/C(=O)C1(Cc2ccc(Cl)cc2)CCN(CC2CCCCC2)CC1` [EMBL-R05-2, 4-[4-[(4-chlorophenyl)methyl]-1-(cyclohexylmethyl)-4-piperidinyl]-2-hydroxy-4-oxo-2-butenoic acid], the “ability to modulate, i.e. to inhibit” value is listed as “inhibit”.
Turning to `O=C(O)/C(O)=C/C(=O)C1(Cc2ccc(Cl)cc2)CCCN(Cc2ccccc2)C1` (stereo not drawn) [EMBL-R05-3, 4-[3-[(4-chlorophenyl)methyl]-1-(phenylmethyl)-3-piperidinyl]-2-hydroxy-4-oxo-2-butenoic acid], the “ability to modulate, i.e. to inhibit” value is given as “inhibit”.
